# Measured values: ChEMBL document CHEMBL1201862, “PubChem BioAssay data set” (2004)
# Active and inactive are the calls of the source.
# Legend:
# [1] = target: T1, DNA repair protein RAD52 homolog (Homo sapiens, UniProt P43351); type: functional, biochemical
# T1 sequence (P43351 whole entry): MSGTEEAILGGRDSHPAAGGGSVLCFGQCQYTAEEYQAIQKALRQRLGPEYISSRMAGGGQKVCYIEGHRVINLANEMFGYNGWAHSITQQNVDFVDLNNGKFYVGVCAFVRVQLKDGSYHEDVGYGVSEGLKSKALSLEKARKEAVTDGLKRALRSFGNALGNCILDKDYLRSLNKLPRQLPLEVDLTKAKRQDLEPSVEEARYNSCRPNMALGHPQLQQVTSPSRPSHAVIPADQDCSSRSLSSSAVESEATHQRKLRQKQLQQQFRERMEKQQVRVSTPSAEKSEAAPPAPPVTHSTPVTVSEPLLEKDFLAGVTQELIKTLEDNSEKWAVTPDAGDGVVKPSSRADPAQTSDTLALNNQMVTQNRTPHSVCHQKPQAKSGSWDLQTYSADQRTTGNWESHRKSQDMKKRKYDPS
# [2] = target: Induced myeloid leukemia cell differentiation protein Mcl-1 (Homo sapiens, UniProt Q07820); type: functional
# Chain of Induced myeloid leukemia cell differentiation protein Mcl-1 (Q07820 whole entry): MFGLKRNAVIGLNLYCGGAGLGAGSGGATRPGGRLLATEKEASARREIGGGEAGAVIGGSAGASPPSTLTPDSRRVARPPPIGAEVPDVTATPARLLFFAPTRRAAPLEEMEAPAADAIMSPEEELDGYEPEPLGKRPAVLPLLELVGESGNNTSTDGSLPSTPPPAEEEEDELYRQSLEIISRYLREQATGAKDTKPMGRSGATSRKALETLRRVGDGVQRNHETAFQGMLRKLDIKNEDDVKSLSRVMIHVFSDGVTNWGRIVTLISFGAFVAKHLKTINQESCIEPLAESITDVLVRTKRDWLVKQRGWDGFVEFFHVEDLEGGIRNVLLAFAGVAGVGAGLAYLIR
# Large T antigen = Large T antigen (Simian virus 40, UniProt P03070); type: functional, Betapolyomavirus macacae;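 further: Confirmatory-stage PubChem screen for compounds that inhibit SV40 T antigen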
# Chain of Large T antigen (P03070 whole entry): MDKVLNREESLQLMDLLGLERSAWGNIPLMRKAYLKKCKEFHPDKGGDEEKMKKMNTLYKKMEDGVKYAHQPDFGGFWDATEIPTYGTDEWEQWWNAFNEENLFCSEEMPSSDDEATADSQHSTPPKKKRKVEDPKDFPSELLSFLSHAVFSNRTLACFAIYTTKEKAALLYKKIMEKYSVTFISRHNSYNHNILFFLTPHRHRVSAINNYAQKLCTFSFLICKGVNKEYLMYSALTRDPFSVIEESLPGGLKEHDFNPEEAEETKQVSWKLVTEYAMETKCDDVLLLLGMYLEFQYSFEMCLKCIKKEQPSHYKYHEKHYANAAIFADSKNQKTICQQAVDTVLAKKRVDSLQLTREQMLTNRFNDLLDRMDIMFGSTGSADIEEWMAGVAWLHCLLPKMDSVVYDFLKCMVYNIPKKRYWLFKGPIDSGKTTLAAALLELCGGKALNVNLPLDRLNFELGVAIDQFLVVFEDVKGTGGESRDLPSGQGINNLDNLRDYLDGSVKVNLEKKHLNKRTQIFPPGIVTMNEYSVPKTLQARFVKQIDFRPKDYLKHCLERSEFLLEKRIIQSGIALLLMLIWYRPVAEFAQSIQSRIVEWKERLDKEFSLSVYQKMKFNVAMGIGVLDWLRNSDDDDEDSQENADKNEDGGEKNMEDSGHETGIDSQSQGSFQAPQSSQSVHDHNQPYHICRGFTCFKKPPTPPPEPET
# Paired box protein Pax-8 = Paired box protein Pax-8 (Homo sapiens, UniProt Q06710); assay: inhibitors of PAX8-driven TPO luciferase reporter, dose response, RMG-I cells, cherry-pick (AID 687027); type: functional, cell-based;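 further: luciferase reporter driven by Pax8 target thyroperoxidase promoter measured by SteadyGlo luminescence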
# Chain of Paired box protein Pax-8 (Q06710 whole entry): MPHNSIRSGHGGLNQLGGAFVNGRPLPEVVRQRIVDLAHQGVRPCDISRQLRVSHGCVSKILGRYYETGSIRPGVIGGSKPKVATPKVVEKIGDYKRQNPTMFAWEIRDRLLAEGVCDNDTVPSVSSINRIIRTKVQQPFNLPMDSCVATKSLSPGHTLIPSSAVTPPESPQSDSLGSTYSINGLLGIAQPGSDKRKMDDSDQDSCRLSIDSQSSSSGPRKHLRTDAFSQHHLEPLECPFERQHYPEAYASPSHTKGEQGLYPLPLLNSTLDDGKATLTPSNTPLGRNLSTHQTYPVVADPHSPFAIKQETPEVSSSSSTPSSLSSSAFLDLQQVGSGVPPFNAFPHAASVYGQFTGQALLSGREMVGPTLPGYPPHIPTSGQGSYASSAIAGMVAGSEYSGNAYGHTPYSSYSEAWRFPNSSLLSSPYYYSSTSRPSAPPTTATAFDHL
# [3] = cytotoxicity in HEK-293T cells, dose response, cytotoxicity control for TCR NF-kB inhibitor project, luminescence, T-cell screen hits (AID 489026); type: functional, cell-based;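 further: cells exposed to compound about 14 hours before the viability readout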
# Fatty acid synthase [4] = target: T2, Fatty acid synthase (Homo sapiens, UniProt P49327); assay: FAS thioesterase domain inhibitors, dose response, biochemical, kinetic fluorescence intensity (AID 624326); type: functional;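 further: rate of fluorescence rise from hydrolysis of a fluorogenic O-methyl fluorescein ester substrate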
# T2 sequence (P49327 whole entry, the tested form may be a part): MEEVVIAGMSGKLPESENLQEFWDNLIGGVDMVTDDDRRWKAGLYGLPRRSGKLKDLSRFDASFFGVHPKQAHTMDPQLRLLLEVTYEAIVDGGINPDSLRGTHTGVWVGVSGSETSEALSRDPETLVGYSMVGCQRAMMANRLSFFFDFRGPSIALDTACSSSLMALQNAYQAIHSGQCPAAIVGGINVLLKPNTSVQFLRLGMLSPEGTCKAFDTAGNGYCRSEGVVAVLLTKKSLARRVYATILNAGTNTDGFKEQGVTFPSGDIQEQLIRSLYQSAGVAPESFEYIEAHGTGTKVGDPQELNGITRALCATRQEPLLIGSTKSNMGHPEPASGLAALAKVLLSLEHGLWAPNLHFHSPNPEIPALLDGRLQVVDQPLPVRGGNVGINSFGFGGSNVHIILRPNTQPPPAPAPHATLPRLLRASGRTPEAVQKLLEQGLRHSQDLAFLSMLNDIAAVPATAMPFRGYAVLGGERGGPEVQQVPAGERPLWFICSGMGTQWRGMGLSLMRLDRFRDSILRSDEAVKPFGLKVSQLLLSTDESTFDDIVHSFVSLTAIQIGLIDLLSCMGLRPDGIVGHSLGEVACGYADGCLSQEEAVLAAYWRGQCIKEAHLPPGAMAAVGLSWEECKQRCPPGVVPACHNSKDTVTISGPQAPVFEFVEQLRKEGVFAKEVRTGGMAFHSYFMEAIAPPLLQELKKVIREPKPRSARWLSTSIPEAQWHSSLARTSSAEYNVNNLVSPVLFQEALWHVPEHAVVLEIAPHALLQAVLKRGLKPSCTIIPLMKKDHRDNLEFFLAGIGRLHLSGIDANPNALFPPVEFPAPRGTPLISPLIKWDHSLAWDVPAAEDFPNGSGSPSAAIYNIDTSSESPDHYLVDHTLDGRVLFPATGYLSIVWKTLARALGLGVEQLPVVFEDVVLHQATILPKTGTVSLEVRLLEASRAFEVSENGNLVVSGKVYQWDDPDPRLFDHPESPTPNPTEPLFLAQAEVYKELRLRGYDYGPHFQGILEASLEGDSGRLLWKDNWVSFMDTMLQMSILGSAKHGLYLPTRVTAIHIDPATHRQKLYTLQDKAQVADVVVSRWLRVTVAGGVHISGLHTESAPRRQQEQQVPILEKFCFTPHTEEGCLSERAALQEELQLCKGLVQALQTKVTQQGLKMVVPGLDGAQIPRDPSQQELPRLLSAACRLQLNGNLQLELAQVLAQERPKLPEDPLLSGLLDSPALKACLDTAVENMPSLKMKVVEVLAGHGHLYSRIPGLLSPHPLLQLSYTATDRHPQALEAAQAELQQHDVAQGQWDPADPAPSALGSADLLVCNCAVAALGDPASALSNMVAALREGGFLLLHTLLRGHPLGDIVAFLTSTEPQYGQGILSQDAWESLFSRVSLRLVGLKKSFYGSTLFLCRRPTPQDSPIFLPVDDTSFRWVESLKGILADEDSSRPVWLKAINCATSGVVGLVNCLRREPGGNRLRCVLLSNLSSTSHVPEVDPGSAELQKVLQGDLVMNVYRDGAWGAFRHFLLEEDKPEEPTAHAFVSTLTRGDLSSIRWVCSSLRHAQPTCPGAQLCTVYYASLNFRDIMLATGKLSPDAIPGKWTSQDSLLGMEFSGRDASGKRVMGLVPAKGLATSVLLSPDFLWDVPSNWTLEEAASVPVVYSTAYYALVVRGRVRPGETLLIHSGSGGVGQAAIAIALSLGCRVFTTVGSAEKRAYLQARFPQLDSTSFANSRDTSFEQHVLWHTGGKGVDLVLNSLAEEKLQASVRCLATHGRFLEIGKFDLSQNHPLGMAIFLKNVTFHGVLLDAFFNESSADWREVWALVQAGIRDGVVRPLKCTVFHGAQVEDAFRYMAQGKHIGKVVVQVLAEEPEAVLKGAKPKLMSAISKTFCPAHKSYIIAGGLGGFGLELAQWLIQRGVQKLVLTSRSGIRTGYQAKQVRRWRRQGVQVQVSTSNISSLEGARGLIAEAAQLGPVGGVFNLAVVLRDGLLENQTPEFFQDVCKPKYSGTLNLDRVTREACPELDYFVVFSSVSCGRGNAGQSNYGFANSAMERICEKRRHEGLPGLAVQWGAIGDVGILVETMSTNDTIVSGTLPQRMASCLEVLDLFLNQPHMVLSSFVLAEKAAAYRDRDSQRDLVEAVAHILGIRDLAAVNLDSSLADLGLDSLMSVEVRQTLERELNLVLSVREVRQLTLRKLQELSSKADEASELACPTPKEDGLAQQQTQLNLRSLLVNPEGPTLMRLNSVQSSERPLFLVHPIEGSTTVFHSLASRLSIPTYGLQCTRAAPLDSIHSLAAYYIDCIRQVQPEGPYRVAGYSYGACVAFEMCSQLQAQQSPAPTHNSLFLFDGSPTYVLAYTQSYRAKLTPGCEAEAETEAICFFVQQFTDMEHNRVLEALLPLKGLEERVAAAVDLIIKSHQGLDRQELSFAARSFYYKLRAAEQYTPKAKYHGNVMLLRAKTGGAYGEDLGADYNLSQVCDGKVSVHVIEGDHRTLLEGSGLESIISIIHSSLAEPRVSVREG
# Fatty acid synthase [5] = target: T2, Fatty acid synthase; assay: FAS thioesterase domain inhibitors, dose response, biochemical, endpoint fluorescence intensity, uHTS hits (AID 624327); type: functional;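 further: fluorescence from hydrolysis of an O-methyl fluorescein acyl ester substrate by the enzyme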
# [6] = target: T3, Sentrin-specific protease 8 (Homo sapiens, UniProt Q96LD8); type: functional
# T3 sequence (Q96LD8 whole entry): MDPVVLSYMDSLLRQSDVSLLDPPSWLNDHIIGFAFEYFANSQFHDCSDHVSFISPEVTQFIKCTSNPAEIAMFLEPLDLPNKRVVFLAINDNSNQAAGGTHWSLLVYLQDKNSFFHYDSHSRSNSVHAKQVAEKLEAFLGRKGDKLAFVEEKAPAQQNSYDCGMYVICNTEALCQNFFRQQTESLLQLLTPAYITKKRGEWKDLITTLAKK
# [7] = target: T3, Sentrin-specific protease 8; type: functional; remark: listed apart in the source
# [8] = CRF-BP/CRF-R2 complex antagonists, dose response, cell-based, uHTS hits, 384-well (AID 651639); type: functional, Homo sapiens; conditions: read-out: IC50_Mean
# [9] = target: T4, Corticotropin-releasing factor receptor 2/Corticotropin-releasing factor-binding protein (Homo sapiens, UniProt P24387+Q13324); assay: activators of CRF receptor 2 with binding protein – uHTS hits, confirmation (AID 602473); type: functional; conditions: read-out: EC50_Mean
# T4 sequence (Q13324 whole entry): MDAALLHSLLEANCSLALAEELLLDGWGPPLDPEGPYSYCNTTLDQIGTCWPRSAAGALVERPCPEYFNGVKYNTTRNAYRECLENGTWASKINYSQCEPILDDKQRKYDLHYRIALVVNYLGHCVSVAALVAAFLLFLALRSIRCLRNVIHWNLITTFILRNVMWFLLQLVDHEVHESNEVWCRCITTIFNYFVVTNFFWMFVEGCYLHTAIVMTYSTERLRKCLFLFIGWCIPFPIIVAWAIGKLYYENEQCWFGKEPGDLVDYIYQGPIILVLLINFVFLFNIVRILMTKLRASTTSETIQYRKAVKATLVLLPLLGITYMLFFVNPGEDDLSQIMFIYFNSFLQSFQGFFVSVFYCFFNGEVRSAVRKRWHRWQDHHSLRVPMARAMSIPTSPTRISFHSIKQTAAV
# T4 sequence (P24387 whole entry): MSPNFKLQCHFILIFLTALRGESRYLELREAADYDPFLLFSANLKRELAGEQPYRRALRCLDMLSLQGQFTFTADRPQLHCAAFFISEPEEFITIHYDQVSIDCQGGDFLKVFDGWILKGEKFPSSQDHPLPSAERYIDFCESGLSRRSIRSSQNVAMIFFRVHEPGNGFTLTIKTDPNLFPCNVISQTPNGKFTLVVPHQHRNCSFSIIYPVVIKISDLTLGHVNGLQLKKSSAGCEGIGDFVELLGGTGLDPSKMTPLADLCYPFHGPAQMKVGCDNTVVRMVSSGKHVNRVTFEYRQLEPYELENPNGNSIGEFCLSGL
# [10] = target: T4, Corticotropin-releasing factor receptor 2/Corticotropin-releasing factor-binding protein; assay: Dose Response confirmation of uHTS hits for small molecule antagonists of the CRF-binding protein and CRF-R2 receptor complex.; type: functional; conditions: read-out: IC50_Mean
# [11] = microbe, parasite or virus in culture; type: functional; conditions: Mycobacterium tuberculosis
# cells = type: functional, cell-based
# H9c2 = assay: cells; type: functional, cell-based; conditions: Rattus norvegicus, H9c2, Myocardium;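 further: confirmatory concentration-response retest of ultra-high-throughput screening hits for modulation of myocardial damage; cell death induced by hydrogen peroxide oxidative stress; compound pretreatment for 60 min then peroxide exposure for 2 h; potency is for protecting the cells against peroxide damage rather than for killing them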
# Protein RecA = target: T5, Protein RecA (Mycobacterium tuberculosis, UniProt P9WHJ3); assay: Fluorescence Cell-Free Homogeneous Dose Retest to Identify Inhibitors of RecA-Intein Splicing Activity. [Related pubchem assays (depositor defined):AID2097, AID2223, AID489010, AID492950]; type: functional
# T5 sequence (P9WHJ3 whole entry): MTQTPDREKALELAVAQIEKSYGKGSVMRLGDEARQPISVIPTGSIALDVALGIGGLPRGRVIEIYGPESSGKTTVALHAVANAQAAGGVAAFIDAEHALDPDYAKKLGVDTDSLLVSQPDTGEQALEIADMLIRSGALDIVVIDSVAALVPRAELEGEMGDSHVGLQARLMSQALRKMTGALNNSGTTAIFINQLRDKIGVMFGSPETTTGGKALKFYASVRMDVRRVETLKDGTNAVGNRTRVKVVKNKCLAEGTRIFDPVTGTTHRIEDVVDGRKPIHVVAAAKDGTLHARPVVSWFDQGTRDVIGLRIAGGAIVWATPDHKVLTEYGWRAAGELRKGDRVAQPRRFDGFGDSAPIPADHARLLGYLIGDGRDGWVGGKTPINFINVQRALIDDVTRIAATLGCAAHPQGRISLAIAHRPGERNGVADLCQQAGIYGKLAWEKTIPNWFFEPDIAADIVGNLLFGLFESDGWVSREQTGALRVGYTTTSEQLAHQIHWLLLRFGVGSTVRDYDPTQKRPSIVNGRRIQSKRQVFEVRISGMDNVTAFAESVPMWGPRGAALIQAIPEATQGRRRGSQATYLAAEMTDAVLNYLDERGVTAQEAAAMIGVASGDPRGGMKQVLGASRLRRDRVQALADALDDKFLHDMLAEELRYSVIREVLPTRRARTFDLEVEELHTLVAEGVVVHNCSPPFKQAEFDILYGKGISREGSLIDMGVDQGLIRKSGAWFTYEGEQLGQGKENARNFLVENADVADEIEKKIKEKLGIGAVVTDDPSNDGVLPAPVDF
# [12] = target: T6, Replicative DNA helicase DnaB (Mycobacterium tuberculosis, UniProt P9WMR3); assay: DnaB intein splicing inhibitors, dose response, biochemical, cell-free fluorescence (AID 449749); type: functional
# T6 sequence (P9WMR3 whole entry): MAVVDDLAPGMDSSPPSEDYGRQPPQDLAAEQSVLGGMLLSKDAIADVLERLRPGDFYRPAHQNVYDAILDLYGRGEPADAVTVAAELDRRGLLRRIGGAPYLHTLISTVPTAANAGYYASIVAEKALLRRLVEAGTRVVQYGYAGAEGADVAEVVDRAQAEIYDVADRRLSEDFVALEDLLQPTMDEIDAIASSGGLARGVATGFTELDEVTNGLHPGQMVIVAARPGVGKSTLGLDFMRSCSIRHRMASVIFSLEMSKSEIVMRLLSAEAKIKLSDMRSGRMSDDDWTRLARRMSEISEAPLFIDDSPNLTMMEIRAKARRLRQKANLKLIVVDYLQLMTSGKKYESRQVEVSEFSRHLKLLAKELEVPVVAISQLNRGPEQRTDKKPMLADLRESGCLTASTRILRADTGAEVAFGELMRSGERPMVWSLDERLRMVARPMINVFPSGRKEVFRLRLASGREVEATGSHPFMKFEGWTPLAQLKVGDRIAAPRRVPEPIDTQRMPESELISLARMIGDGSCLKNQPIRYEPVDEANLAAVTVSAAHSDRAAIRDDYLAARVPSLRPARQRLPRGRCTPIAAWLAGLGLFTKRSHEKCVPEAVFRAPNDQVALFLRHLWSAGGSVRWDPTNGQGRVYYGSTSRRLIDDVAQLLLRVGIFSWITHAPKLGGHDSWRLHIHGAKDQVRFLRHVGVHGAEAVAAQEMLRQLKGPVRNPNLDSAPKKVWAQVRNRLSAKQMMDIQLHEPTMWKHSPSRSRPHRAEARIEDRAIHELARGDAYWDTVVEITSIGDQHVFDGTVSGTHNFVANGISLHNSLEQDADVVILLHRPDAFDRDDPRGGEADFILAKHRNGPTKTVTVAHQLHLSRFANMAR
structure (smiles),measurement,setting,value
OC(CN1CCNCC1)Cn1c2ccccc2c2ccccc21 (stereo not given),AC50,[1],20.7 µM (active)
CC(C(=O)c1ccc(-c2ccccc2)cc1)[n+]1cccc(NC(=O)c2ccccc2)c1 (stereo not given),AC50,[1],19.1 µM (active)
CCOc1cc(/C=N/Nc2nc(-c3cccs3)c(NC(C)=O)s2)ccc1O,IC50,[2],3.51 µM (active)
same,IC50,Large T antigen,30.5 µM (active)
COc1ccc(OC)c(-c2nnc3n2N=C(c2ccc(OC)c(OC4CCCC4)c2)CS3)c1,AC50,Paired box protein Pax-8,3.49 µM (active)
same,IC50,[3],28.3 µM (inactive)
CN/C(=C/[N+](=O)[O-])NCCSCc1ccc(CN(C)C)o1,AC50,[1],18 µM (active)
Cc1cc([N+](=O)[O-])nn1CC(=O)N/N=C/c1ccccc1Br,IC50,Fatty acid synthase [4],7.28 µM (active)
same,IC50,Fatty acid synthase [5],10.3 µM (active)
COC(=O)c1ccc(C)cc1C1CN=NC12Cc1cc(C)ccc1C2=O (stereo not given),IC50,[6],20.9 µM (active)
same,IC50,[7],13.9 µM (active)
Cc1ccc(S(=O)(=O)c2nnn3c2nc(N2CCOCC2)c2ccccc23)cc1C,IC50,[8],7.26 µM (active)
same,EC50,[9],> 53 µM (inactive)
same,IC50,[10],5.78 µM (active)
Cc1cc(OC(=O)c2cccs2)c2c3c(c(=O)oc2c1)CCCC3,IC50,[8],> 20 µM (inactive)
same,EC50,[9],> 53 µM (inactive)
same,CC50,[11],> 40 µM (active)
same,IC50,[10],16.4 µM (active)
CC(NC(=O)C12CC3CC(CC(O)(C3)C1)C2)c1ccc(Cl)cc1Cl (stereo not given),EC50,cells,> 350 µM (not active)
O=C1NC(=S)N(C2CC2)C(=O)/C1=C/NNc1ccccc1,IC50,Large T antigen,8.87 µM (active)
CC(=O)N1CCN(c2ccccc2NC(=O)c2ccc(-c3cccc([N+](=O)[O-])c3)o2)CC1,IC50,H9c2,> 79 µM (inactive)
same,IC50,Fatty acid synthase [4],12.1 µM (active)
same,IC50,Fatty acid synthase [5],8.81 µM (active)
Cc1nc(C)c(-c2csc(Nc3ccc(N)cc3)n2)s1,IC50,Large T antigen,11.5 µM (active)
CCOC(=O)c1ccc(/N=c2\sc(C(=O)OC)cc(=O)n2CCCN2CCOCC2)cc1,IC50,[8],4.53 µM (active)
same,EC50,[9],> 53 µM (inactive)
same,IC50,[10],4.49 µM (active)
O=C(NC(=O)c1ccccc1O)c1ccc(C(F)(F)F)cc1,IC50,[8],15 µM (active)
same,EC50,[9],9.51 µM (active)
same,IC50,[10],4.31 µM (active)
Cc1csc(N(C(=O)CCNC(=O)c2ccc([N+](=O)[O-])cc2)c2ccccc2)n1,IC50,Fatty acid synthase [4],4.74 µM (active)
same,IC50,Fatty acid synthase [5],5.73 µM (active)
CN(C)CCNC(=O)c1cccc(-c2cnc3c(NC=O)cc(/C=C/c4ccccc4)cn23)c1,AC50,[1],2.21 µM (active)
COc1cccc(N/C([S-])=C(/C(=O)c2ccc(OC(F)F)cc2)[n+]2ccccc2)c1,EC50,Protein RecA,8.62 µM (active)
same,AC50,[12],23.9 µM (active)
same,IC50,[6],6 µM (active)
same,IC50,[7],3.93 µM (active)
Cn1c(N)c(C(=O)COC(=O)CNS(=O)(=O)c2ccc(Cl)c(Cl)c2)c(=O)n(C)c1=O,IC50,[8],9.63 µM (active)
same,EC50,[9],> 53 µM (inactive)
same,IC50,[10],30.8 µM (active)
COc1cccc(CNC(=O)COC(=O)c2cc([N+](=O)[O-])ccc2N2CCCC2)c1,IC50,Fatty acid synthase [4],1.23 µM (active)
same,IC50,Fatty acid synthase [5],3.18 µM (active)
CC(C)(C)c1ccc(C(=O)NCC(=O)OCc2ccc([N+](=O)[O-])cc2)cc1,IC50,Fatty acid synthase [4],1.69 µM (active)
same,IC50,Fatty acid synthase [5],2.66 µM (active)
CCOc1cc(CNc2ccc(N3CCN(C(C)=O)CC3)cc2)cc(Br)c1OC,IC50,Large T antigen,8.75 µM (active)
